How the values were obtained:
STAT3-Ser727 = STAT3-Ser727 phosphorylation in NSC cultures; format: cell-based, mouse
Method: Cell culture: E13.5 cortical embryonic mouse CNS stem cells were grown as previously described (Johe, et al., Genes Dev 10, 3129-40, 1996). Cells were expanded in serum-free DMEM/F12 medium with N2 supplement and FGF2 (20 ng/ml) for 5 days under 5% oxygen conditions and were re-plated fresh or from frozen stocks at 1,000-10,000 cells per cm^2. FGF2 was included throughout the studies, unless otherwise stated. […] Pharmacological treatments: Unless otherwise stated, the following concentrations were used: Dll4 and Ang-2 (in vitro, 500 ng/ml; in vivo 12.5 μg as a single injection), FGF2 (in vitro, 20 ng/ml), JAK inhibitor (in vitro, 200 nM; in vivo, 250 ng as a single injection), insulin (in vitro, 25 μg/ml; in vivo, 40 μg as a single injection), DAPT (1 μM), Fluorogold (0.5 μg). For the survival assays, compounds were added daily and Notch ligands every 2 days for the duration of the experiment. For the effects of kinase inhibitors on Notch activation, cells were pre-incubated for 1 h prior to Notch activation. […] Activation of the Notch receptor by addition of insulin or Dll4 was inhibited by DAPT, a γ-secretase inhibitor that blocks Notch cleavage. […] Insulin maintained STAT[…]727 phosphorylation levels, and acutely (1-h) induced it following a 16-h insulin withdrawal phase (FIG. 1c). […] Fetal NSCs in culture express Ang-1, and treatment (2 days) with Dll4 maintained it whereas CNTF reduced it. Ang-2 expression was maintained under these conditions. […] Ang-2 induced mTOR and STAT3-S727 phosphorylation, unlike Ang-1 (FIG. 2a). Ang-1, however, induced Akt phosphorylation.

TH+ dopaminergic neurons = assay: Tyrosine hydroxylase immunohistochemistry in striatum and substantia nigra, 6OHDA model; format: in vivo, rat; conditions: % ipsi- vs. contra-lateral TH optical density (FIG. 13b)
Method: Pharmacological treatments.
Immunohistochemistry: Under deep anesthesia, animals were perfused transcardially with a rinse of saline, followed by 4% formaldehyde fixative (pH 7.4). Brains were removed immediately, stored in the fixative solution overnight and then in 30% sucrose for 3 days. Brains were frozen-sectioned at 16 μm. Immunohistochemical detection of BrdU and Hes3 was performed with an antigen-retrieval step (sections were boiled in 0.02M citrate, pH 6.0 in a microwave for 5 min, washed 3 times with distilled water, and incubated for 45 min in 2M HCl, at room temperature).
To investigate the clinical potential of this treatment approach, the compounds were used in an animal model of Parkinson's disease. Adult rats were lesioned by intra-striatal 6-OH-DA (Przedborski, S. et al., Neuroscience 67, 631-47, 1995). After two weeks, a single injection of the compounds was administered in the lateral ventricle ipsilateral to the lesion. Amphetamine-induced rotations were measured bi-weekly throughout the experiment. Thirteen weeks after treatment they were given a single injection of fluorogold in the striatum to label the […] dopaminergic projection.
Immunohistochemistry: Under deep anesthesia, animals were perfused transcardially with a rinse of saline, followed by 4% formaldehyde fixative (pH 7.4). […]

adult mouse SVZ cultures = assay: Survival/generation of adult mouse SVZ NSC cultures (colony and cell number); format: cell-based
Method: Cell culture: E13.5 cortical embryonic mouse CNS stem cells were grown as previously described (Johe, et al., Genes Dev 10, 3129-40, 1996). Cells were expanded in serum-free DMEM/F12 medium with N2 supplement and FGF2 (20 ng/ml) for 5 days under 5% oxygen conditions and were re-plated fresh or from frozen stocks at 1,000-10,000 cells per cm^2. FGF2 was included throughout the studies, unless otherwise stated. Adult rat (3-6 months old) or adult mouse (2-4 months old) SVZ NSC cultures were grown in the same medium as the fetal cultures.
Pharmacological treatments: Unless otherwise stated, the following concentrations were used: Dll4 and Ang-2 (in vitro, 500 ng/ml; in vivo 12.5 μg as a single injection), FGF2 (in vitro, 20 ng/ml), JAK inhibitor (in vitro, 200 nM; in vivo, 250 ng as a single injection), insulin (in vitro, 25 μg/ml; in vivo, 40 μg as a single injection), DAPT (1 μM), Fluorogold (0.5 μg). For the survival assays, compounds were added daily and Notch ligands every 2 days for the duration of the experiment. For the effects of kinase inhibitors on Notch activation, cells were pre-incubated for 1 h prior to Notch activation.
Hes3 mRNA is present in fetal NSC cultures under conditions that support their self-renewal but CNTF-induced differentiation (Bonni, A. et al., Science 278, 477-83, 1997; Rajan & McKay, J Neurosci 18, 3620-9, 1998): downregulates Hes3 message (Androutsellis-Theotokis, A. et al., Nature 442, 823-6, 2006). Knockout studies have shown a role of Hes3 in self-renewal (Hatakeyama, J. et al., Development 131, 5539-50, 2004). It was investigated if Hes3 mediates stem cell functions in vitro to assess its use as a functional NSC marker. Fetal (E13.5) cortical tissue was dissociated and magnetic sorting was used to isolate a cell population that expressed AC133, an established marker of NSCs (Uchida, N. et al., Proc Natl Acad Sci USA 97, 14720-5, 2000). Sorted (AC133+) cells expressed Hes3 and Sox2, another established NSC marker (Zappone, M. V. et al., Development 127, 2367-82, 2000). […] To investigate if Hes3 is a mediator of pro-survival signals for NSCs, adult mouse SVZ cultures (which respond strongly to pro-survival signals) were treated with insulin, Dll4, and a combination of the two.

[1] = wild-type adult mouse SVZ cultures

Substance: Ang-2: human angiopoietin-2 (623-AN) from R&D; antagonist for angiopoietin-1 at Tie2
- STAT3-S727 phosphorylation (STAT3-Ser727; NSC cultures, 0.5 μg/ml (FIG. 2a)): induced
- TH+ signal in the lesioned striatum (TH+ dopaminergic neurons): increase

Substance: Dll4: Notch ligand Delta-like 4; mouse Dll4 (1389-D4) from R&D
- colony number and overall cell number (adult mouse SVZ cultures; cells from Hes3 null mice): moderate (but significant) benefits
- colony number and overall cell number (adult mouse SVZ cultures; [1]): great increase
- TH+ signal in the lesioned striatum (TH+ dopaminergic neurons): increase

Substance: insulin: insulin (Sigma, 19278), growth factor
- colony number and overall cell number (adult mouse SVZ cultures; cells from Hes3 null mice): moderate (but significant) benefits
- colony number and overall cell number (adult mouse SVZ cultures; [1]): great increase
- STAT3-Ser727 phosphorylation (STAT3-Ser727; acute (1-h) addition following a 16-h insulin withdrawal): induced
- STAT3-Ser727 phosphorylation levels (STAT3-Ser727; continued presence in NSC culture): maintained

From patent publication US20110105393A1, “METHODS FOR PROMOTING STEM CELL PROLIFERATION AND SURVIVAL” (priority 2007, published 2011)
